Data published in patent publication US20120029048A1, “PHENYLALKYL N-HYDROXYUREAS FOR TREATING LEUKOTRIENE RELATED PATHOLOGIES” (VIA Pharmaceuticals, Inc., priority 2010, published 2012).

Key:
leukotriene B4 (LTB4) = assay: Ex vivo LTB4 in blood by ELISA, Phase 2 ACS study; set-up: species or system human; details: trough drug levels
Experimental: (§1) In this randomized, placebo-controlled study, 191 patients were randomized 3 weeks after an acute coronary syndrome (ACS) to receive 25, 50, or 100 mg N-[3-[5-[(4-fluorophenyl)methyl]-2-thienyl]-1-methyl-2-propynyl]-N-hydroxyurea or placebo qd for 12 weeks. Baseline assessments were performed at the start of treatment and these baseline results were compared with repeat assessments during various follow-up periods during the treatment study. A subset of 93 patients who had undergone a Multidetector (64 slice coronary) Computerized Tomography (MDCT) examination at baseline continued on study medication for a total of 24 weeks and underwent a repeat scan. Patients received a single daily oral dose of 25 mg, 50 mg, or 100 mg of N-[3-[5-[(4-fluorophenyl)methyl]-2-thienyl]-1-methyl-2-propynyl]-N-hydroxyurea or matching placebo by administering 2 capsules as prepared in Example 3 for 12 weeks or 24 weeks. Blood samples for measurement of ex vivo leukotriene B4 (LTB4) and high sensitivity C reactive protein (hsCRP), and urine samples for measurement of urinary leukotriene E4 (LTE4) levels were collected pre-dose on weeks 2, 6 and 12. Blood samples were assayed for ex vivo LTB4 by enzyme-linked immunosorbent assay, and for hsCRP by an immunoturbidimetric method. Urine samples were assayed for LTE4 using Liquid Chromatography with Tandem Mass Spectrometry (LC/MS/MS).

leukotriene E4 (LTE4) = assay: Urinary LTE4 by LC/MS/MS, Phase 2 ACS study; assay type: in vivo, human; details: all doses (25, 50, 100 mg qd), ACS patients
Experimental: as §1

[1] = test system: high sensitivity C reactive protein (hsCRP); assay: hsCRP in blood by immunoturbidimetric method, Phase 2 ACS study; assay type: in vivo, human; details: for hsCRP change from baseline, LSMEANS geometric mean (%) / hsCRP change from baseline, Median (25-75): 12 weeks
Experimental: as §1

non-calcified plaque = assay: Serial MDCT coronary plaque imaging, Phase 2 ACS study, 24-week substudy; assay type: in vivo, human; details: all three doses, 24 weeks, compared with placebo
Experimental: In this randomized, placebo-controlled study, 191 patients were randomized 3 weeks after an acute coronary syndrome (ACS) to receive 25, 50, or 100 mg N-[3-[5-[(4-fluorophenyl)methyl]-2-thienyl]-1-methyl-2-propynyl]-N-hydroxyurea or placebo qd for 12 weeks. Baseline assessments were performed at the start of treatment and these baseline results were compared with repeat assessments during various follow-up periods during the treatment study. A subset of 93 patients who had undergone a Multidetector (64 slice coronary) Computerized Tomography (MDCT) examination at baseline continued on study medication for a total of 24 weeks and underwent a repeat scan. For those patients who continued on study medication for a total of 24 weeks, contrast-enhanced CT examination was performed at baseline and after 24 weeks of treatment with a 64-slice scanner (GE LightSpeed VCT; GE Healthcare, USA). Target plaque lesions were defined prospectively as non-calcified plaque with measurable low-density components of <60 HU situated in the proximal or middle portion of either the left main, left anterior ascending, left circumflex or right coronary artery causing at least 20% luminal stenosis. Prior to analysis of results, patients had their MDCT examinations evaluated twice by the same reviewer and also by a second reviewer for evaluation of intraobserver and interobserver variability of measurements.

LTB4 = assay: Ex vivo LTB4 in blood by ELISA, Phase 2 CEA study; set-up: species or system human; details: 100 mg qd oral 12 weeks, CEA patients, compared with placebo (p<0.0001)
Experimental: (§2) In this randomized, double blind, placebo-controlled study, 50 patients with significant carotid artery stenosis (60-90%) were treated once daily for 12 weeks with orally administered 100 mg N-[3-[5-[(4-fluorophenyl)methyl]-2-thienyl]-1-methyl-2-propynyl]-N-hydroxyurea or placebo prior to undergoing CEA, at which time endarterectomy tissue (plaque) was collected and stored for subsequent tissue analysis. Baseline assessments are performed at the start of treatment and these baseline results were compared with repeat assessments during various follow-up periods of treatment. The treatment was conducted for twelve weeks at which time these baseline assessments were performed and compared. Patients received a total single daily oral dose of 100 mg of N-[3-[5-[(4-fluorophenyl)methyl]-2-thienyl]-1-methyl-2-propynyl]-N-hydroxyurea or matching placebo by administering 2 capsules as prepared in Example 3 for 12 weeks. Blood samples for measurement of ex vivo LTB4 and hsCRP, and urine samples for measurement of urinary LTE4 levels were collected pre-dose on weeks 2, 6 and 12. […] LTB4, LTE4 and hsCRP biomarker data were assessed using change from baseline comparisons and an ANCOVA was used to compare the treatment groups where the covariate was the baseline value of the outcome measure. […]

LTE4 = assay: Urinary LTE4 by LC/MS/MS, Phase 2 CEA study; assay type: in vivo, human; details: 100 mg qd oral 12 weeks, CEA patients, compared with placebo (p<0.01)
Experimental: as §2

hsCRP = hsCRP in blood by immunoturbidimetric method, Phase 2 CEA study; assay type: in vivo, human; details: 100 mg qd oral 12 weeks, CEA patients, compared with placebo (p<0.01)
Experimental: as §2

[2] = test system: carotid plaques with rupture-prone histological subtypes; assay: Relative necrotic core thickness in carotid plaques, Phase 2 CEA study; assay type: in vivo, human; details: rupture-prone plaque subtypes, 100 mg qd 12 weeks, compared with placebo (p<0.02)
Experimental: (§3) In this randomized, double blind, placebo-controlled study, 50 patients with significant carotid artery stenosis (60-90%) were treated once daily for 12 weeks with orally administered 100 mg N-[3-[5-[(4-fluorophenyl)methyl]-2-thienyl]-1-methyl-2-propynyl]-N-hydroxyurea or placebo prior to undergoing CEA, at which time endarterectomy tissue (plaque) was collected and stored for subsequent tissue analysis. Baseline assessments are performed at the start of treatment and these baseline results were compared with repeat assessments during various follow-up periods of treatment. The treatment was conducted for twelve weeks at which time these baseline assessments were performed and compared.
(§4) At the end of 12 weeks treatment with 100 mg of N-[3-[5-[(4-fluorophenyl)methyl]-2-thienyl]-1-methyl-2-propynyl]-N-hydroxyurea, patients underwent CEA, at which time endarterectomy tissue (plaque) was collected, fixed in 10% formalin and paraffin blocks, and stored for subsequent tissue analysis. […] A portion of each of the plaques was also analyzed for inflammatory gene expression after isolation of total RNA and reverse transcription using a TaqMan® High Capacity cDNA assay.
(§5) LTB4, LTE4 and hsCRP biomarker data were assessed using change from baseline comparisons and an ANCOVA was used to compare the treatment groups where the covariate was the baseline value of the outcome measure. […]

[3] = test system: inflammatory genes IL-6, IL 8, IL-10, MMP9, I-kappa-B, osteopontin; assay: Inflammatory gene expression in carotid plaques (TaqMan), Phase 2 CEA study; assay type: in vivo, human; details: rupture-prone plaque subtypes, 100 mg qd 12 weeks
Experimental: as §3, §4, §5

[4] = 12-week main population, 25 mg qd oral
[5] = 12-week main population, 50 mg qd oral
[6] = 12-week main population, 100 mg qd oral
[7] = 24-week CT substudy population, 25 mg qd oral
[8] = 24-week CT substudy population, 50 mg qd oral
[9] = 24-week CT substudy population, 100 mg qd oral

CC(C#Cc1ccc(Cc2ccc(F)cc2)s1)N(O)C(N)=O (stereo not shown) [VIA-2291, N-[3-[5-[(4-fluorophenyl)methyl]-2-thienyl]-1-methyl-2-propynyl]-N-hydroxyurea] was tested. Which “patients with approximately 80% inhibition of ex vivo LTB4” value (leukotriene B4 (LTB4); 100-mg group) did it give?
Its value is > 90 % of patients.

What about the “inhibition of ex vivo LTB4” value (leukotriene B4 (LTB4); 100-mg group, ACS patients) of the same molecule?
The value was “approximately 80%”.

And the “effect on ex vivo leukotriene LTB4” value (leukotriene B4 (LTB4); all doses (25, 50, 100 mg qd), P<0.0001, dose-dependent)?
The value was “significantly reduced”.

And the “effect on urinary leukotriene LTE4” value (leukotriene E4 (LTE4))?
The value was “significantly reduced”.

And the “change in hsCRP within group between 12 and 24 weeks” value ([1]; 100 mg group (P<0.01))?
The value was “significant reduction”.

And the “hsCRP at 12 weeks, Median (25-75)” value ([1]; 12-week main population, 25 mg qd oral (n = 44))?
Its value is 1.1 (0.6, 2.5).

What about the “hsCRP at 12 weeks, Median (25-75)” value ([1]; 12-week main population, 50 mg qd oral (n = 38)) of the same molecule?
Its value is 1.3 (0.4, 2.7).

And the “hsCRP at 12 weeks, Median (25-75)” value ([1]; 12-week main population, 100 mg qd oral (n = 38))?
Its value is 0.6 (0.3, 2.5).

And the “hsCRP change from baseline, LSMEANS geometric mean (%)” value (“hsCRP change from baseline … (%)” below) [1, 4]?
The value was −25.32%.

What about the “hsCRP change from baseline, Median (25-75)” value (“hsCRP change … (25-75)” below) [1, 4] of the same molecule?
Its value is −0.2 (−1.1, 0.4).

What about the “hsCRP change from baseline … (%)” value [1, 5] of the same molecule?
The value was −29.13%.

What about the “hsCRP change … (25-75)” value [1, 5] of the same molecule?
The value was −0.1 (−1.9, 0.1).

What about the “hsCRP change from baseline … (%)” value [1, 6] of the same molecule?
The value was −38.99%.

And the “hsCRP change … (25-75)” value [1, 6]?
Its value is −0.3 (−0.8, 0.1).

What about the “hsCRP 12 weeks change from baseline, LSMEANS geometric mean (%)” value (from here on “hsCRP 12 weeks change from baseline … (%)”) [1, 7] of the same molecule?
The value was −24.82%.

And the “hsCRP 12 weeks change from baseline, Median (25-75)” value (from here on “hsCRP 12 weeks change … (25-75)”) [1, 7]?
The value was −0.1 (−1.5, 0.8).

What about the “hsCRP 24 weeks change from baseline, LSMEANS geometric mean (%)” value (“hsCRP 24 weeks change from baseline … (%)” below) [1, 7] of the same molecule?
Its value is −32.91%.

And the “hsCRP 24 weeks change from baseline, Median (25-75)” value (“hsCRP 24 weeks change … (25-75)” for short) [1, 7]?
Its value is −0.4 (−1.2, 0.3).

What about the “hsCRP at 24 weeks, Median (25-75)” value [1, 7] of the same molecule?
The value was 1.2 (0.7, 2.1).

And the “hsCRP at 12 weeks, Median (25-75)” value ([1]; 24-week CT substudy population, 25 mg qd oral (n = 23))?
The value was 1.1 (0.6, 2.4).

And the “hsCRP 12 weeks change from baseline … (%)” value [1, 8]?
Its value is −22.71%.

And the “hsCRP 12 weeks change … (25-75)” value [1, 8]?
Its value is −0.1 (−5.0, 0.6).

And the “hsCRP 24 weeks change from baseline … (%)” value [1, 8]?
The value was −27.05%.

And the “hsCRP 24 weeks change … (25-75)” value [1, 8]?
Its value is −0.2 (−3.7, 0.2).

What about the “hsCRP at 24 weeks, Median (25-75)” value [1, 8] of the same molecule?
The value was 1.5 (0.6, 2.6).

What about the “hsCRP at 12 weeks, Median (25-75)” value ([1]; 24-week CT substudy population, 50 mg qd oral (n = 20)) of the same molecule?
The value was 1.7 (0.4, 4.3).

And the “hsCRP 12 weeks change from baseline … (%)” value [1, 9]?
The value was −39.05%.

What about the “hsCRP 12 weeks change … (25-75)” value [1, 9] of the same molecule?
Its value is −0.3 (−2.4, 0.1).

And the “hsCRP 24 weeks change from baseline … (%)” value [1, 9]?
Its value is −67.16%.

And the “hsCRP 24 weeks change … (25-75)” value [1, 9]?
Its value is −0.4 (−3.9, −0.2).

And the “hsCRP at 24 weeks, Median (25-75)” value [1, 9]?
Its value is 0.3 (0.2, 0.9).

And the “hsCRP at 12 weeks, Median (25-75)” value ([1]; 24-week CT substudy population, 100 mg qd oral (n = 18))?
The value was 0.6 (0.4, 2.0).

What about the “decrease in hsCRP” value ([1]; 100-mg group at 24 weeks, compared with placebo (P=0.0002)) of the same molecule?
The value was 67%.

What about the “effect on new plaque lesions in serial MDCT images” value (non-calcified plaque) of the same molecule?
The value was “reduced”.

What about the “effect on non-calcified plaque volume in serial MDCT images” value (non-calcified plaque) of the same molecule?
The value was “reduced”.

What about the “reduction of ex vivo LTB4” value (LTB4) of the same molecule?
Its value is “approximately 90%”.

What about the “reduction of urine LTE4” value (LTE4) of the same molecule?
Its value is 65%.

And the “reduction of hsCRP” value (hsCRP)?
Its value is 2.0 mg/L.

What about the “reduction of relative necrotic core thickness” value [2] of the same molecule?
Its value is 21%.

What about the “expression of inflammatory genes IL-6, IL 8, IL-10, MMP9, I-kappa-B, osteopontin” value [3] of the same molecule?
Its value is “reduction in expression”.
